This is an account of results in patent publication US20210386761A1, “COMPOSITION FOR PREVENTING OR TREATING INFLAMMATORY BOWEL DISEASE, CONTAINING, AS ACTIVE INGREDIENT, TAURODEOXYCHOLIC ACID OR PHARMACEUTICALLY ACCEPTABLE SALT THEREOF” (SHAPERON INC., priority 2019, published 2021).

Assay [1] deals with inflammatory bowel disease induced by 3% DSS administration for 7 days. Nature of the assay: 3% DSS 7-day inflammatory bowel disease model, comparison with clinical prescription drugs. The assay is classed as in vivo, mouse. Conditions: 3% DSS 7 days. How it is done: (§1) In order to evaluate the clinical symptoms-improving efficacy in comparison with those by clinical prescription drugs, inflammatory bowel disease was induced by 7-day or repeated administration of 3% or 2.5% DSS solution, and tofacitinib 10 mg/kg, 5-ASA 100 mg/kg or 200 mg/kg, prednisolone 1 mg/kg, and TDCA 2.5 mg/kg were administered one time a day from the start date of DSS administration. From the start date of DSS administration, TDCA 2.5 mg/kg was administered one time a day (QD), two times a day (BID), and three times a day (TID).
(§2) The disease activity indexes (DAI) including body weight, body weight loss, stool consistency, and bloody stool were measured daily. DAI was scored according to the following [Table 1].
After the experiment was completed, the mice were euthanized with CO2 and the bowels were excised. Next, the bowels were put in cold 1×DPBS and the remaining mesenteric adipose tissue was isolated. At this time, the colon length was measured. Next, the tail end of the colon was opened and wound up with scissors to obtain colon tissue. The obtained colon tissue was fixed in 10% neutral buffered formalin (Sigma-Aldrich, HT501128-4L, St. Louis, Mo., USA) at room temperature for 48 hours and then treated in a tissue processor (Excelsior ES, Thermo scientific, Waltham, Mass., USA) for 12 hours. The processed tissue was sectioned and paraffinized using a microtome (Microm, HM 340E, Thermo Scientific, Waltham, Mass., USA) and an embedding system (HistoStar, Thermo Scientific, Waltham, Mass., USA). Next, the processed tissue was stained with hematoxylin and eosin, and visualized under an optical microscope (Motic, BA310, Redding, Calif., USA) to confirm the histopathological state, and the histopathological state was scored to histological score according to the criteria in the following [Table 2].

A further assay deals with IL-6. The assay can be described thus: Pro-inflammatory cytokine ELISA of colon tissue, IL-6. In kind it is in vivo, mouse. To be noted: for IL-6 in the colon tissue: Day 7. Here is the method:
as §1
(§3) A colon was obtained from a mouse which had been subjected to an experiment by the same method as that described in <Example 2>, the peripheral colon was cut into 2 cm in length and the weight was recorded. Next, the colon was chopped into 1 mm pieces and frozen on ice, treated with 500 μl of cold DPBS containing protease inhibitor (Roche, 11836170001, Basel, Switzerland), and homogenized for 10 to 20 seconds using an electric homogenizer (IKA T10 Basic, Wilmington, SE, USA). The homogenate was centrifuged at 4° C. for 10 minutes at 12,000×g to obtain a supernatant. ELISA analysis was performed using the obtained supernatant, IL-6 DuoSet ELISA kit (R & D systems, USA), IL-1β DuoSet ELISA kit (R & D systems, USA), and TNF-α DuoSet ELISA kit (R & D systems, USA) according to the manufacturer's procedure to confirm the production of pro-inflammatory cytokines.
(§4) Specifically, female C57BL/6 mice were fed with a 2% DSS solution together with drinking water for 7 days from Day 0 of the experiment by the same method as that described in <Example 1>, DPBS or 5 mg/kg TDCA was administered to the mice by oral gavage one time a day for 6 days from Day 1 of the experiment, and the body weight and DAI were measured daily. As a control, mice freely fed with drinking water were used. Next, the mice were sacrificed on Day 7 of the experiment by the same method as that described in <Example 3>, and inflammatory cell and proinflammatory cytokine analysis was performed.
as §4, with “oral gavage from Day” for “oral gavage one time a day for 6 days from Day”, “1 of DSS administration or 2 days before DSS administration, and the” for “1 of the experiment, and the”, “3>, and the inflammatory cell” for “3>, and inflammatory cell”
In general terms: In an ELISA, binding on a coated surface is turned into a signal by an enzyme label.

The next assay has as its system IL-1β. Nature of the assay: Pro-inflammatory cytokine ELISA of colon tissue, IL-1β. Conditions: for IL-1β in the colon tissue: Day 7. In kind it is in vivo, mouse. Here is the method: as §1, §3, §4
as §4, with “oral gavage from Day” for “oral gavage one time a day for 6 days from Day”, “1 of DSS administration or 2 days before DSS administration, and the” for “1 of the experiment, and the”, “3>, and the inflammatory cell” for “3>, and inflammatory cell”

Assay [2] relates to inflammasome activity of bone marrow-derived macrophages. Nature of the assay: Inhibition of IL-1β secretion of bone marrow-derived macrophages (LPS then ATP or BzATP). In kind it is cell-based. Conditions: Mus musculus, Macrophage, LPS 10 ng/ml 3 h, TDCA 1 h, ATP 0.5 mM or BzATP 0.3 mM 1 h, FIGS. 10A and 10B. Here is the method: Bone marrow was collected from a DPBS-administered mouse which had been subjected to an experiment by the same method as that described in <Example 2>, induced to differentiate into macrophages, then pretreated with LPS (10 ng/ml) for 3 hours so as to be 4×10^4 cells in a 96-well plate, treated with TDCA at various concentrations for 1 hour, then treated with ATP (0.5 mM) or BzATP (0.3 mM) for an additional 1 hour, and cultured, and the amount of IL-1β in the cell culture was measured and analyzed using an ELISA kit (R & D systems, USA) according to the manufacturer's procedure.

A further assay concerns TNF-α. The assay can be described thus: Pro-inflammatory cytokine ELISA of colon tissue, TNF-α. The assay is classed as in vivo, mouse. Conditions: for TNF-α in the colon tissue: Day 7, FIG. 7B. How it is done: as §1, §3
as §4, with “oral gavage from Day” for “oral gavage one time a day for 6 days from Day”, “1 of DSS administration or 2 days before DSS administration, and the” for “1 of the experiment, and the”, “3>, and the inflammatory cell” for “3>, and inflammatory cell”

In assay [3] the test system is TGR5 knockout (TGR5−/−) inflammatory bowel disease-induced mouse model. The assay can be described thus: Clinical symptom analysis in DSS-induced TGR5 knock-out (TGR5−/−) mouse model. The assay is classed as in vivo. Conditions: TGR5−/− mice, 2% DSS 10 days. How it is done:
as §2
Specifically, C57BL/6-Gpbar1^tm1(KOMP)Vlcg mice (TGR5 KO, KOMP Repository, The Knockout Mouse Project, University of California, Davis, Calif.) were used as TGR5 knockout (TGR5^−/−) female C57BL/6 mice. The TGR5^−/− female C57BL/6 mice or TGR5 normal (WT) female C57BL/6 mice were fed with a 2% DSS solution or DPBS together with drinking water for 10 days from Day 0 of the experiment by the same method as that described in <Example 1>. DPBS or 5 mg/kg TDCA was administered to the mice by oral gavage one time a day for 11 days from Day 1 of the experiment, and the body weight and DAI were measured daily. As a control, mice freely fed with drinking water were used.

Where [4] appears, read: 2% DSS 7 days, 5 mg/kg TDCA oral gavage, FIG. 3B.
[5] abbreviates: 3% DSS 7 days, TDCA 2.5 mg/kg vs tofacitinib 10 mg/kg and 5-ASA 100 mg/kg.
Setting [6] is: DSS+TDCA group: 5 mg/kg TDCA from Day 1 of DSS, FIG. 7B.
Where [7] appears, read: DSS+preTDCA group: 5 mg/kg TDCA from 2 days before DSS, FIG. 7B.

`C[C@H](CCC(=O)NCCS(=O)(=O)O)[C@H]1CC[C@H]2[C@@H]3CC[C@@H]4C[C@H](O)CC[C@]4(C)[C@H]3C[C@H](O)[C@]12C` [TDCA, sodium taurodeoxycholic acid]: in assay [1] (TDCA 2.5 mg/kg one time a day vs tofacitinib 10 mg/kg and 5-ASA 100 mg/kg, FIG. 9A), the “body weight change, compared with clinical prescription drugs” value is “effect equivalent to those by tofacitinib 10 mg/kg and 5-ASA 100 mg/kg”. Further, in assay [1] (TDCA 2.5 mg/kg one time a day vs tofacitinib 10 mg/kg and 5-ASA 100 mg/kg, FIG. 9B), the “DAI change, compared with clinical prescription drugs” value is “effect equivalent to those by tofacitinib 10 mg/kg and 5-ASA 100 mg/kg”. Further, in assay [1] (TDCA 2.5 mg/kg vs tofacitinib 10 mg/kg and 5-ASA 100 mg/kg, FIG. 9C), the “colon length, compared with clinical prescription drugs” value was “effect equivalent to those by tofacitinib 10 mg/kg and 5-ASA 100 mg/kg”. Further, the “histological lesion index, compared with clinical prescription drugs” value in assay [1] (TDCA 2.5 mg/kg vs tofacitinib 10 mg/kg and 5-ASA 100 mg/kg, FIG. 9D) was “effect equivalent to those by tofacitinib 10 mg/kg and 5-ASA 100 mg/kg”. For the same molecule, the “IL-6 in the colon tissue” value in the assay with IL-6 (setting [4]), in the assay on IL-6 (setting [6]) and in the assay on IL-6 (setting [7]) was “decreased” in each case. The “concentration of IL-6 in the colon tissue, compared with clinical prescription drugs” value in the assay with IL-6 (setting [5]) is “equivalent to those by tofacitinib 10 mg/kg and 5-ASA 100 mg/kg”. In addition, the “IL-1β in the colon tissue” value in the assay with IL-1β (setting [4]), in the assay on IL-1β (setting [6]) and in the assay with IL-1β (setting [7]) was “decreased” in each case. The “concentration of IL-1β in the colon tissue, compared with clinical prescription drugs” value with IL-1β (setting [5]) is “more effectively suppressed the concentration of IL-1β than tofacitinib 10 mg/kg and 5-ASA 100 mg/kg”. In assay [2], the IC50 was in the range of 60 to 90 nM. In the assay with TNF-α (setting [5]), the “concentration of TNF-α in the colon tissue, compared with clinical prescription drugs” value is “equivalent to those by tofacitinib 10 mg/kg and 5-ASA 100 mg/kg”. In addition, the “TNF-α in the colon tissue” value in the assay with TNF-α (DSS+TDCA group: 5 mg/kg TDCA from Day 1 of DSS) and in the assay with TNF-α (DSS+preTDCA group: 5 mg/kg TDCA from 2 days before DSS) was “decreased” each time. Also, the “initial body weight lost on Day 10” value in assay [3] (5 mg/kg TDCA oral gavage one time a day, FIG. 8A) was “about 27%”. The DAI change entry in assay [3] (5 mg/kg TDCA, FIG. 8B) is reported as “DAI was high”. Moreover, in assay [3] (5 mg/kg TDCA, FIG. 8C), the survival rate is 60%.

For orientation: IC50 means the concentration at which inhibition is half-maximal.
